Results as given in patent US8815565B2, “Method for culturing mycoplasma contamination-free cells and method for removing mycoplasma contamination of cells” (Cellsafe Co., Ltd., priority 2010, dated 2014).
*1 amine or outer side, *2 acyl side, *3 side chain or, on linkers, in order; H or OH if unused. Where a SMILES comes first, the peptide text is derived from it. Bridges are numbered along the chain shown (N, C = ends). [ ]: non-standard residue; d: D form. X1 = CC(C)CCCCCCCCC[C@H](CC(=O)[*:1])O[*:2]

Experiments:
[1] = tested on: Mycoplasma hyorhinis (ATCC17981s); test: Inhibition of Mycoplasma hyorhinis cultured in PPLO medium, INT colour change; type: cell-based; conditions: final concentration at which INT colour change did not occur, 24 hours + 4 hours at 37° C.; for IC50: Mycoplasma, read-out: IC50
Description: In order to evaluate the effects of the extract and amphidinol derivatives prepared in Example 1 on mycoplasma, Mycoplasma hyorhinis (ATCC17981s) was cultured in a PPLO medium (pleuropneumonia-like organism basal medium, Difco Laboratories, Detroit, USA) supplemented with a fetal calf serum and a yeast extract, according to the method disclosed by Hayflick (Hayflick, 1965, Tex. Rep. Bio. Med. 23, 285-303). That is, 100 μl of the medium was placed on each well of a 96-well plate, and a sample (that is, the extract and amphidinol derivatives prepared in Example 1) was added to each well, such that each sample was diluted from 2 times (i.e., 2× diluted) to 12 times (i.e., 12× diluted), the starting concentration being 1 mg/ml. Mycoplasma was cultured in a PPLO medium (pleuropneumonia-like organism basal medium, Difco Laboratories, Detroit, USA) supplemented with a fetal calf serum and a yeast extract, at a temperature of 37° C. for 48 hours. The resulting culture medium was diluted with the PPLO medium at a ratio of 1:10. 100 μl of the diluted culture medium was added to each well of the 96-well plate, so that the total amount of each well was 200 μl. After culturing at a temperature of 37° C. for 24 hours, 40 μl of 0.2 mg/ml INT (p-iodonitrotetrazolium) was added thereto and culturing was further performed for 4 hours. If the medium turns pink following the culturing, the color change means that metabolism of mycoplasma actively occurs. Also, if mycoplasma is suppressed by the sample, the medium turned pink less.

[2] = tested on: HepG2 cell line contaminated with mycoplasma; test: Co-treatment with amphidinol 3 (AM3) and cyclic lipopeptide/antibiotic, PCR with mycoplasma diagnosis kit; type: cell-based
Description: The cell lines NIH3T3, HepG2, and Raw 264.7, which were confirmed to be contaminated with mycoplasma, were each inoculated at a concentration of 1×10^6 cells on a T-75 culture flask (NUNC, Cat. No. 156367). DMEM (GIBCO BRL, Cat. No. 12800-058) containing 10% or less of serum (GIBCO BRL, Cat. […] After culturing for 3 days, the obtained cells were treated with Trypsin-EDTA to obtain a cell solution. The resulting cells (1×10^6 cells) which was treated with amphidinol 3 (AM3) were inoculated. DMEM (GIBCO BRL, Cat. No. 12800-058) containing 10% or less of serum (GIBCO BRL, Cat. […] After culturing for 3 days, the cells were harvested. PCR was performed thereon with a mycoplasma diagnosis kit (Promokine, Germany; Cellsafe Co., Ltd., Korea) according to the enclosed protocol. The resulting PCR products were electrophoresed on a 1% agarose gel to measure the mycoplasma contamination.

Compound	IC50 [1] [µg/mL]	minimum inhibitory concentration (no INT colour change) [1]	also measured
C=C/C=C/CC/C=C/C=C/C=C/CC/C=C/C(O)C(O)C1OC(C(O)C(O)C(=C)CCC(O)C2CC(O)C(O)C(C(O)C(O)/C=C(\C)CCC(O)CC(O)C(O)C(C)CC(O)C(O)C(C)CCC(O)CCCC(O)CCCC(O)CCCC(O)/C=C/CC(CO)OS(=O)(=O)[O-])O2)CC(O)C1O.[Na+] (stereo not drawn) [AM1, amphidinol 1]	1 to 20	–	–
C=CCC/C=C/C=C/C=C/CC/C=C/C(O)C(O)C1OC(C(O)C(O)C(=C)CCC(O)C2CC(O)C(O)C(C(O)C(O)/C=C(\C)CCC(O)CC(O)C(O)C(C)CC(O)C(O)CCCC(O)CCCC(O)CCCC(O)/C=C/CC(O)/C=C/CC(O)CO)O2)CC(O)C1O (stereo not drawn) [AM6, amphidinol 6]	–	+++ (+++: 1~20 μg/ml)	–
C=C/C=C/CC/C=C/C=C/C=C/CC/C=C/C(O)C(O)C1OC(C(O)C(O)C(=C)CCC(O)C2CC(O)C(O)C(C(O)C(O)/C=C(\C)CCC(O)CC(O)C(O)C(C)C(O)CCCC(O)CCCC(O)CCCC(O)/C=C/CC(O)/C=C/CC(O)CO)O2)CC(O)C1O (stereo not drawn) [AM9, amphidinol 9]	1 to 20	–	–
C=CCC/C=C/C=C/C=C/CC/C=C/C(O)C(O)C1OC(C(O)C(O)C(=C)CCC(O)C2CC(O)C(O)C(C(O)C(O)/C=C(\C)CCC(O)CC(O)C(O)C(C)CC(O)C(O)CCCC(O)CCCC(O)/C=C/CC(O)/C=C/CC(O)CO)O2)CC(O)C1O (stereo not drawn) [AM10]	10 to 100	–	–
CC(C)CCCCCCCCC[C@@H]1CC(=O)N[C@@H](CCC(=O)O)C(=O)N[C@@H](CC(C)C)C(=O)N[C@H](CC(C)C)C(=O)N[C@@H](C(C)C)C(=O)N[C@@H](CC(=O)O)C(=O)N[C@H](CC(C)C)C(=O)N[C@@H](CC(C)C)C(=O)O1 [surfactin] (EL[dL]VD[dL]L; linker N-C via X1)	–	–	mycoplasma contamination ([2]; used alone, surfactin 10 or 20 μM, ciprofloxacin 1 or 5 μg/ml, rifampicin 0.5 or 1 μg/ml): mycoplasma contamination remained; mycoplasma contamination ([2]; used together with amphidinol 3 (AM3) 5 and 10 μg/ml): completely removed
amphidinol 2 [AM2]	–	+++ (+++: 1~20 μg/ml)	–
amphidinol 5 [AM5]	–	+++ (+++: 1~20 μg/ml)	–
amphidinol 7 [AM7]	–	+++ (+++: 1~20 μg/ml)	–
